Laboratory results: US20250154165A1, “MULTIANTENNARY GLYCOLIPID MIMETICS” (CONSEJO SUPERIOR DE INVESTIGACIONES CIENTÍFICAS (CSIC), priority 2021, published 2025)

Tests used:
JNK = experiment: Signal transduction by multiplex bead array: JNK phosphorylation; format: cell-based; settings: comparing to LPS treatment alone (FIG. 4)
Source text: (§1) FIG. 4. […] Compound 12, a representative compound of the invention, was examined in term of signal transduction to explore how the new compounds exert their suppressive effect, using the multiplex bead array.
(§2) Using the multiplex bead array, we examined how the new compounds might exert their suppressive effect in term of signal transduction.

[1] = system: BMDC from MyD88 deficient mice; experiment: MyD88 dependency of BMDC maturation; format: cell-based; settings: BMDC from MyD88 deficient mice (FIG. 16)
Source text: (§3) To determine whether the adjuvancy function of the representative compound 12 is MyD88-dependent or not, we performed experiments with immune cells isolated from MyD88 knocked-out (KO) mice. […] Data are dose-dependent and differences become more pronounced at the higher concentrations. […] Taken together, the results support that compound 12 adjuvancy function is MyD88-dependent.

[2] = system: Splenocytes treated with αGalCer; experiment: Suppression of αGalCer-induced inflammation (splenocytes in vitro); format: cell-based, mouse; settings: splenocytes treated concurrently with compound and αGalCer (FIG. 5)
Description: FIG. 5. […] Splenocytes were treated concurrently with the compounds of the invention and αGalCer to assess the suppressive function of compounds on αGalCer-induced inflammation, with several compounds showing prominent suppressive function.
(§4) The whole spleen was surgically removed from a mouse and mechanically dissociated into a single cell suspension of splenocytes, which were then cultured in the complete RPMI 1640 medium (cRPMI). Human peripheral blood mononuclear cells (PBMCs) from healthy volunteers were collected from whole blood through gradient-centrifugation with Histopaque-1077 (Sigma-Aldrich).
Splenocytes were treated concurrently with the compounds of the invention and αGalCer to assess their ability to suppress αGalCer-induced inflammation.

[3] = system: DC-maturation marker CD86 in the spleen of mice; experiment: DC maturation in vivo (CD86 mRNA in spleen); settings: mice injected with the compound (FIG. 12)
Description: FIG. 12. […] The capability of selected compounds 8, 12, 18, 27, and 29 in promoting DC maturation in vivo was assessed by the mRNA level of DC-maturation marker CD86 in the spleen of mice injected with the compounds of the invention.
The capability of selected compounds 8, 12, 18, 27, and 29 in promoting DC maturation in vivo was assessed by the mRNA level of DC-maturation marker CD86 in the spleen of mice injected with the compounds of the invention.

p38 = experiment: Signal transduction by multiplex bead array: p38 phosphorylation; format: cell-based; settings: comparing to LPS treatment alone (FIG. 4)
Source text: as §1, §2

[4] = system: bone marrow-derived dendritic cells (BMDC) from MyD88 KO mice; experiment: MyD88 dependency of IL-12p40 production (BMDCs in vitro); format: cell-based; settings: BMDC from MyD88 KO mice compared with BMDC from wild-type mice; dose-dependent (FIG. 15)
Source text: FIG. 15. […] The effect was dose-dependent, and the difference became more pronounced at a higher concentration.
as §3

STAT3 = experiment: Signal transduction by multiplex bead array: STAT3 phosphorylation; format: cell-based; settings: comparing to LPS treatment alone (FIG. 4)
Source text: as §1, §2

[5] = system: OVA-induced AHR mouse model; experiment: Suppression of OVA-induced airway hyperreactivity (AHR) in vivo; settings: OVA-induced AHR mouse model (FIG. 7)
Description: FIG. 7. […] The capability of selected compounds 8, 12, 18, and 27 in suppressing Th2 inflammation in vivo was assessed using the OAV-induced AHR mouse model.
(§5) For ovalbumin (OVA) challenge, mice were sensitized intraperitoneally (i.p.) with 50 μg of OVA with 2% alhydrogel adjuvant (InvivoGen). Mice were challenged three times with 50 μg of OVA on day 7 post-sensitization, either daily or every other day. Mice were sacrificed the day after the last OVA challenge. The scheme of the OT-1 adoptive transfer mouse model for examining the proliferation of CD8^+ T cells in adjuvanting OVA challenge is described in FIG. 13.
Mice were anesthetized with 100 mg per kg body weight pentobarbital (Sigma-Aldrich), tracheotomised and mechanically ventilated via the FinePointe RC system (Buxco Research Systems, Wilmington, NC). Lung function was assessed by measuring lung resistance and dynamic compliance in response to increasing doses of aerosolized methacholine (1.25-40 mg/mL, Sigma-Aldrich).
Using the Th2 OVA-induced AHR mouse model, we assessed the capability of selected compounds 8, 12, 18, and 27 in suppressing Th2 inflammation.

[6] = system: glycosidases of human fibroblast lysates; experiment: Stability of the glycosidic linkage to glycosidases upon incubation with human fibroblast lysates; format: in vitro ADME; settings: 4 h, 37° C., compound solution 200 μM, 0.1 M citrate buffer pH 4.5
Description: The stability of the glyosidic linkage in compounds 2, 4, 6, 8, 10, 12, 14, 16, 18, 20, 22, 23, 25, 27 and 29, selected as representative examples, upon incubation with human fibroblast lysates for 4 h was checked. For such purpose, cells were scraped into ice-cold H2O (10^6 cells mL^−1) and lysed by sonication. Insoluble materials were removed by centrifugation at 15,000 rpm for 5 min and protein concentrations were determined with Protein Assay Rapid Kit (WAKO, Tokyo, Japan). 10 μL of the lysates in 0.1% Triton X-100 in distilled water were incubated at 37° C. with 20 μL of the compound solution (200 μM) in 0.1 M citrate buffer, pH 4.5. In control experiments, the activity of several lysosomas glycosidases was confirmed using fluorescent substrates. The substrates were 4-methylumbelliferone (4-MU)-conjugated β-D-glucopyranoside (for GCase), α-D-glucopyranoside (for α-glucosidase), α-D-galactopyranoside (for α-Galase) and β-D-galactopyranoside (for β-galactosidase). The liberated 4-methylumbelliferone was measured in the black-well plate with a Perkin Elmer Luminescence Spectrometer (excitation wavelength: 340 nm; emission: 460 nm).

Splenocytes = experiment: Immune-stimulating function of compounds alone (splenocytes in vitro); format: cell-based, mouse
Description: FIG. 6. […] Splenocytes were treated with the compounds of the invention alone to assess the immune-stimulating function of the compounds. Compounds 12, 18, 22, 27, and 29 induced significant IFNγ secretion, and compound 8 induced significant IL-4 secretion.
as §4
Splenocytes were treated with the compounds of the invention alone to assess the immune-stimulating function of the compounds by measuring their ability to promote the secretions of IFN-γ and IL-4.

[7] = system: CD8+ T cells in the spleen, OT-1 adoptive transfer mouse model; experiment: Th1 immune response in vivo (CD8+ T cell proliferation, OT-1 adoptive transfer mouse model); settings: OT-1 adoptive transfer mouse model (FIG. 13)
Description: FIG. 13. […] The adjuvancy capability of selected compounds 12 and 27 in vivo was assessed by their capability in promoting the proliferation of CD8^+ T cells in the spleen in the OT-1 adoptive transfer mouse model as described in the scheme.
as §5
Compounds 12 and 27 were injected into OT-1 mice (transgenic mice that express a TCR that is specific for an ovalbumin OVA peptide) to validate the Th1-biased immunomodulation property.

ERK = experiment: Signal transduction by multiplex bead array: ERK phosphorylation; format: cell-based; settings: comparing to LPS treatment alone (FIG. 4)
Source text: as §1, §2

[8] = splenocytes treated with compound alone (FIG. 6)

CCCCCCCCCCCCNC(=O)C(COC1C(O)C(O)C(O)C2COC(=O)N21)NC(=O)CCCCCCCCCCC (centres unmarked) [Compound 12]
phosphorylation of JNK (JNK): not JNK
maturation of BMDC induced by compound treatment [1]: impeded
suppressive function on αGalCer-induced inflammation [2]: prominent inflammation-suppressing function
CD86 mRNA expression in the spleens of mice [3]: significant increase
phosphorylation of p38 (p38): significantly reduced
IL-12p40 production in response to compound [4]: severely curtailed
phosphorylation of STAT3 (STAT3): significant reduction of phosphorylation
suppression of airway hyperreactivity (AHR) [5]: can suppress AHR onset
hydrolysis of the glycolipid mimetic (free polysubstituted 2-oxa-3-oxoindolizidine detected by gas chromatography) [6]: No traces of the free polysubstituted 2-oxa-3-oxoindolizidine
Th1/Th2 bias (Splenocytes; concluded from IFNγ and IL-4 secretion of splenocytes (FIG. 6)): Th1-biased
IFNγ secretion (Splenocytes; [8]): effective in promoting the productions of IFNγ
IL-4 secretion (Splenocytes; [8]): not IL-4
proliferation of CD8+ T cells in the spleen [7]: significant CD8^+ T cell proliferation
phosphorylation of ERK (ERK): significantly reduced
